The values that follow are results of earlier work, collected in patent publication US7799760B2 (Centro de Ingenieria Genetica y Biotecnologia, priority 2001, dated 2010).

In this series the test system is chronic neuropathic diabetic ulcers.

For the substance Becaplermin, the rate of recurrence entry (in the third month) was “about 30%”. Besides, for the setting “multicenter, controlled, randomized clinical trial in the USA, neuropathic foot ulcers with normal arterial blood supply, topical gel”, the efficacy is reported as 50%.
